The values that follow come from ChEMBL document CHEMBL1795229, “Vasorelaxant effects of macrocyclic bis(bibenzyls) from liverworts” (Bioorg Med Chem, 2011).

The source made the active and inactive calls. The calls are words filed in the database; no cut-off is given here. A value given as a limit tells only on which side of the number the result lay.

In assay [1] the test system is Aorta. Description: Vasorelaxant activity in Wistar rat endothelium-intact aortic rings assessed as inhibition of phenylephrine-induced contractions at 30 uM after 10 to 30 mins. Type of assay: functional, tissue-based.
Assay [2] relates to Aorta. Description: Vasorelaxant activity in Wistar rat endothelium-intact aortic rings assessed as inhibition of phenylephrine-induced contractions at 10 to 100 uM. In kind it is functional, tissue-based. The following applies: TDE = time-dependent effect.
The subject of assay [3] is Aorta. Description: Vasorelaxant activity in Wistar rat endothelium-denuded aortic rings assessed as inhibition of phenylephrine-induced contractions at 10 to 100 uM after 10 to 60 mins. In kind it is functional.
Assay [4] deals with Aorta. Description: Vasorelaxant activity in Wistar rat endothelium-intact aortic rings assessed as inhibition of phenylephrine-induced contractions at 10 to 100 uM after 10 to 60 mins. Type of assay: functional.
Assay [5] has as its system Aorta. Put plainly: Vasorelaxant activity in Wistar rat endothelium-intact aortic rings assessed as inhibition of phenylephrine-induced contractions after 10 to 60 mins. In kind it is functional, tissue-based.
Assay [6] concerns Aorta. Description: Vasorelaxant activity in Wistar rat aortic rings assessed as inhibition of phenylephrine-induced contractions at 10 to 100 uM after 10 to 60 mins in presence of 100 uM of NO synthase inhibitor L-NMMA. In kind it is functional, tissue-based.
For assay [7], the system named is Aorta. Description: Vasorelaxant activity in Wistar rat endothelium-denuded aortic rings assessed as inhibition of phenylephrine-induced contractions in calcium-free medium at 30 uM pretreated with nicardipine. Type of assay: functional, tissue-based.
The test system of assay [8] is Aorta. Description: Vasorelaxant activity in Wistar rat endothelium-denuded aortic rings assessed as inhibition of phenylephrine-induced contractions presence of 1 mM of potassium channel inhibitor TEA. Type of assay: functional, tissue-based.
Assay [9] concerns Aorta. Description: Vasorelaxant activity in Wistar rat endothelium-denuded aortic rings assessed as inhibition of calcium chloride-induced contractions in calcium-free potassium-rich medium at 30 uM. Type of assay: functional, tissue-based.
The subject of assay [10] is Aorta. Put plainly: Vasorelaxant activity in Wistar rat endothelium-denuded aortic rings assessed as inhibition of phenylephrine-induced contractions at 10 to 100 uM. The settings on record: TDE = time-dependent effect. In kind it is functional, tissue-based.
Assay [11] deals with Aorta. Put plainly: Vasorelaxant activity in Wistar rat endothelium-intact aortic rings assessed as inhibition of phenylephrine-induced contractions after 10 to 30 mins. In kind it is functional, tissue-based.

With `Oc1cc2cc(c1O)Oc1ccc(cc1)CCc1ccc(O)c(O)c1Oc1cccc(c1)CC2`, in the assay with Aorta [1], the inhibition entry was “Active”.

Regarding `COc1ccc2cc1Oc1ccc(cc1)CCc1cc(O)ccc1-c1ccc(cc1O)CC2` [RICCARDI F], the inhibition result is “tde” in the assay on Aorta [2] and “Dose-dependent effect” in the assay with Aorta [5]. The inhibition entry in the assay on Aorta [3] was “inactive”. Also, in the assay with Aorta [4], the “inhibition (INH)” value is reported as above 60%. Besides, the inhibition entry with Aorta [1] was “Active”.

As for `COc1cccc(CCc2ccc(O)c(Oc3ccc(CCc4cccc(O)c4)cc3)c2)c1`, the inhibition entry in the assay on Aorta [1] is “Active”.

Turning to `Oc1ccc2c(c1)CCc1ccc(cc1)Oc1cc(ccc1O)CCc1ccc-2c(O)c1` [RICCARDI C], the inhibition result with Aorta [2] is “tde”; in the assay on Aorta [5], “Dose-dependent effect”. Also, the inhibition entry with Aorta [3] was “inactive”. In addition, the “inhibition (INH)” value with Aorta [4] was above 60%. In addition, the inhibition result in the assay on Aorta [1] is “Active”.

Turning to `Oc1ccc2cc1Oc1ccc(cc1)CCc1cccc(c1)Oc1c(O)cccc1CC2`, in the assay with Aorta [1], the inhibition entry is “Active”.

As to `COc1ccc2c(c1)CCc1ccc(OC)c(c1)-c1cc(ccc1OC)CCc1ccc-2c(OC)c1`, in the assay on Aorta [1], the inhibition result is “Active”.

Consider `Oc1ccc2c(c1)CCc1ccc(cc1)Oc1cc(cc(-c3cc4cc(c3O)Oc3ccc(cc3)CCc3cc(O)ccc3-c3ccc(cc3O)CC4)c1O)CCc1ccc-2c(O)c1`, for which the inhibition result in the assay on Aorta [1] is “Active”.

For the compound `Oc1ccc2c(c1)CCc1ccc(O)c(c1)-c1cc(ccc1O)/C=C\c1cccc(c1)O2`, the inhibition result with Aorta [1] is “Active”.

As for `COc1cc2c(cc1O)-c1ccc(O)cc1CCc1cc(O)c(O)c(c1)Oc1ccc(cc1)CC2` [PLAGIOCHIN A], the inhibition entry in the assay with Aorta [6] and in the assay on Aorta [3] was “inactive” in each case. Moreover, the inhibition entry is “tde” in the assay with Aorta [2] and “Dose-dependent effect” with Aorta [5]. Moreover, the “inhibition (INH)” value in the assay with Aorta [4] is listed as above 60%. Further, in the assay with Aorta [1], the inhibition result was “Active”.

For the compound `COC1Cc2cccc(c2)Oc2c(O)cccc2CCc2ccc(cc2)Oc2cc1cc(O)c2O` (configuration not stated), the inhibition result in the assay with Aorta [1] is “Active”.

Regarding `COc1cc(CCc2cccc(Oc3c(O)cccc3CCc3ccc(O)cc3)c2)cc(O)c1O`, the inhibition result in the assay on Aorta [1] was “Active”.

Turning to `Oc1ccc2cc1-c1cc(ccc1O)CCc1c(ccc(O)c1O)Oc1cccc(c1)/C=C\2` [ISOPLAGIOCHIN B], the inhibition result was “tde” in the assay with Aorta [2], “Dose-dependent effect” with Aorta [5] and “tde” in the assay with Aorta [10]. Also, the inhibition result in the assay on Aorta [7] and with Aorta [1] was “Active” each time. Besides, the “inhibition (INH)” value in the assay with Aorta [3] was above 80%; with Aorta [4], above 60%. Further, the inhibition result in the assay on Aorta [8] and in the assay with Aorta [9] was “inactive” each time.

Regarding `COc1cc2cc(c1OC)Oc1ccc(cc1)CCc1ccc(OC)c(OC)c1Oc1cccc(c1)CC2`, in the assay with Aorta [1], the inhibition entry was “Active”.

As a reminder, the IC50 is the concentration that gives 50% inhibition. For `CC(=O)OCC[N+](C)(C)C` [ACETYLCHOLINE], in the assay on Aorta [11], the IC50 was determined as 1000 nM.

On to `COc1ccc2c(c1)CCc1ccc(cc1)Oc1cc(ccc1O)CCc1ccc-2c(O)c1` [RICCARDIN A], for which the inhibition result in the assay with Aorta [2] is “tde”; in the assay on Aorta [5] it was “Dose-dependent effect”. The inhibition entry in the assay with Aorta [3] was “inactive”. Moreover, the “inhibition (INH)” value in the assay on Aorta [4] was above 60%. In the assay on Aorta [1], the inhibition entry is “Active”.

`Oc1ccc2c(c1)/C=C/c1ccc(O)c(c1)Oc1ccc(cc1)CCc1cccc(c1)O2`: the inhibition result in the assay with Aorta [1] is “Active”.

Regarding `Oc1cc2cc(c1O)Oc1ccc(cc1)CCc1cccc(O)c1Oc1cccc(c1)CC2`, in the assay with Aorta [1], the inhibition result is “Active”.

`Oc1cccc(CCc2ccc(Oc3cc(CCc4cccc(O)c4)cc(O)c3O)cc2)c1` [PERROTETTIN F]: the values for the inhibition entry with Aorta [2], in the assay with Aorta [5] and in the assay on Aorta [10] were “tde”, “Dose-dependent effect” and “tde”, respectively. In addition, the inhibition result in the assay on Aorta [7], in the assay on Aorta [8], in the assay with Aorta [9] and with Aorta [1] was “Active” throughout. For the same compound, the “inhibition (INH)” value in the assay on Aorta [3] is above 80%; in the assay on Aorta [4] it was above 60%.

With `Oc1ccc2c(c1)CCc1ccc(O)c(c1)-c1cc(ccc1O)CCc1ccc-2c(O)c1` [ISOPLAGIOCHIN D], the results for the inhibition result with Aorta [2], in the assay with Aorta [5] and with Aorta [10] were “tde”, “Dose-dependent effect” and “tde”, respectively. Also, the inhibition result in the assay with Aorta [7], with Aorta [8], with Aorta [9] and in the assay with Aorta [1] was “Active” throughout. For the same compound, the “inhibition (INH)” value is reported as above 80% in the assay on Aorta [3] and above 60% in the assay with Aorta [4].

For the compound `Oc1ccc(CCc2cccc(O)c2O)cc1Oc1ccc(CCc2cccc(O)c2O)cc1`, in the assay on Aorta [1], the inhibition result was “Active”.

As for `COc1cccc2c1Oc1cccc(c1)CCc1cc(OC)c(OC)c(c1)Oc1ccc(cc1)CC2`, the inhibition entry in the assay with Aorta [1] was “Active”.
